The text below walks through data of patent US11478460B2, “Diaryl substituted 6,5-fused ring compounds as C5aR inhibitors” (CHEMOCENTRYX, INC., priority 2017, dated 2022).

Molecules are shown by their SMILES.

C5aR, sequence (P21730 whole entry): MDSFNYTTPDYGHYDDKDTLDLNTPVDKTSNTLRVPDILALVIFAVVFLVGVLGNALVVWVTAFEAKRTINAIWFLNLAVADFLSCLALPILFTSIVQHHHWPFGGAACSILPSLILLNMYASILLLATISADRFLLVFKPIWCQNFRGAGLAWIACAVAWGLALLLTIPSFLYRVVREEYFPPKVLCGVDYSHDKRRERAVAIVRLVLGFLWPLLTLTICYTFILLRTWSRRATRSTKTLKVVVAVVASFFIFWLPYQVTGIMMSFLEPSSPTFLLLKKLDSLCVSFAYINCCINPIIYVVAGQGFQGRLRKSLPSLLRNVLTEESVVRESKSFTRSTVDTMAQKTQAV

The test deals with C5aR (Homo sapiens (Human), UniProt P21730). The test can be described thus: Chemotaxis assay using U937 cells (C5aR mediated migration). The class given is cell-based. To be noted: read-out: Mig IC50. The method, then:
U937 cells are a monocytic cell line which express C5aR, and are available from ATCC (VA). These cells were cultured as a suspension in RPMI-1640 medium supplemented with 2 mM L-glutamine, 1.5 g/L sodium bicarbonate, 4.5 g/L glucose, 10 mM HEPES, 1 mM sodium pyruvate, and 10% FBS. Cells were grown under 5% CO2/95% air, 100% humidity at 37° C. and subcultured twice weekly at 1:6 (cells were cultured at a density range of 1×10^5 to 2×10^6 cells/mL) and harvested at 1×10^6 cells/mL. Prior to assay, cells are treated overnight with 0.5 mM of cyclic AMP (Sigma, OH) and washed once prior to use. cAMP treated U937 cells can be used in C5aR ligand binding and functional assays.
Optionally, compounds may be further assayed for their ability to inhibit chemotaxis in cells. Chemotaxis assays are performed using 5 μm pore polycarbonate, polyvinylpyrrolidone-coated filters in 96-well chemotaxis chambers (Neuroprobe; Gaithersburg, Md.) using chemotaxis buffer (Hank's balanced salt solution (HBSS) and 1% FBS). C5aR ligands (i.e., C5a, R&D Systems; Minneapolis, Minn.) are use to evaluate compound mediated inhibition of C5aR mediated migration. Other chemokines (i.e., SDF-1α; R&D Systems; Minneapolis, Minn.) are used as specificity controls. The lower chamber is loaded with 29 μl of chemokine (i.e., 0.03 nM C5a) and varying amounts of compound; the top chamber contains 100,000 U937 or neutrophil cells in 20 μl. The chambers are incubated 1.5 hours at 37° C., and the number of cells in the lower chamber quantified either by direct cell counts in five high powered fields per well or by the CyQuant assay (Molecular Probes), a fluorescent dye method that measures nucleic acid content and microscopic observation.
The compounds in Table 1, below, were prepared using the methods described above. Characterization data is provided for each compound listed. Activity is provided as follows for the chemotaxis assay using U937 cells as described herein (Example 12): +, 500 nM<IC50; ++, 50 nM<IC50≤500 nM; +++, 5 nM<IC50≤50 nM; and ++++, IC50≤5 nM.
For `Cc1cccc(F)c1-n1nc2c(c1-c1ccc(N)cc1)CN(c1ccccc1C(C)C)CC2` [Example 1.464], the IC50 was 50 to 500 nM.

For the compound `CCC(c1ccccc1)N1CCc2nn(-c3c(C)cccc3C)c(-c3cc(F)c(NC(N)=O)cc3F)c2C1` (centres unmarked) [Example 1.096], the IC50 was at most 5 nM.

As for `Cc1cccc(C)c1-n1nc2c(c1-c1cc(F)c(NC(N)=O)cc1F)CN(c1ncc(C(C)C)cc1Cl)CC2` [Example 1.113], the IC50 was at most 5 nM.

Regarding `Cc1cc(C(F)(F)F)ccc1N1CCc2nn(-c3c(C)cccc3OCC(C)C)c(-c3ccc(NC(N)=O)cc3)c2C1` [Example 1.377], the IC50 was in the range of 5 to 50 nM.

Turning to `Cc1cccc(C)c1-n1nc2c(c1-c1cc(F)c(NC(N)=O)cc1F)CN(c1ccc(Cl)cc1F)CC2` [Example 1.107], the IC50 is at most 5 nM.

With `COc1cccc(F)c1CN1CCc2nn(-c3c(C)cccc3OCC(C)C)c(-c3ccc(NC(N)=O)cc3)c2C1` [Example 1.354], the IC50 was in the range of 5 to 50 nM.

Consider `CCc1cccc(CC)c1-n1nc2c(c1-c1cc(F)c(NC(N)=O)cc1F)CN(Cc1ccccc1)C(C)C2` (centres unmarked) [Example 1.151], for which the IC50 is at most 5 nM.

Take `Cc1cccc(OCC(C)C)c1-n1nc2c(c1-c1ccc(NC(N)=O)cc1)CN(Cc1cccc(C(F)(F)F)c1)CC2` [Example 1.338]: the IC50 lay in the range of 5 to 50 nM.

Regarding `Cc1cccc(OCC(C)C)c1-n1nc2c(c1-c1cc(F)c(NC(N)=O)cc1F)CN(c1ncccc1C(C)C)CC2` [Example 1.191], the IC50 is at most 5 nM.

Regarding `Cc1cccc(OCC(C)C)c1-n1nc2c(c1-c1ccc(NC(N)=O)c(F)c1)CN(Cc1nccs1)CC2` [Example 1.234], the IC50 was in the range of 5 to 50 nM.

`CCc1cccc(CC)c1-n1nc2c(c1-c1cc(F)c(NC(=O)CO)cc1F)CN(Cc1ccc(C(F)(F)F)cc1C(F)(F)F)CC2` [Example 1.002]: the IC50 was 50 to 500 nM.

Consider `Cc1cccc(OCC(C)C)c1-n1nc2c(c1-c1ccc(NC(N)=O)cc1)CN(C(=O)Cc1ccccc1)CC2` [Example 1.430], for which the IC50 is above 500 nM.

As for `CCc1cccc(CC)c1-n1nc2c(c1-c1ccc(NC(N)=O)c(F)c1)CN(c1ncc(Cl)cc1Cl)CC2` [Example 1.227], the IC50 was at most 5 nM.

Regarding `Cc1cc(N)ccc1-c1c2c(nn1-c1c(C)cccc1C)CCN(c1ccccc1C(C)C)C2` [Example 1.468], the IC50 lay in the range of 50 to 500 nM.

On to `Cc1cccc(C)c1-n1nc2c(c1-c1cc(F)c(NC(N)=O)cc1F)CN(C(C)(C)c1ccccc1)CC2` [Example 1.146], for which the half-maximal inhibitory concentration (IC50) is at most 5 nM.

Consider `Cc1cccc(OCC(C)C)c1-n1nc2c(c1-c1ccc(NC(N)=O)cc1)CN(CC(C(F)(F)F)C(F)(F)F)CC2` [Example 1.346], for which the IC50 lay in the range of 5 to 50 nM.

`CCc1cccc(CC)c1-n1nc2c(c1-c1ccc(NC(N)=O)c(F)c1)CN(C(C)(C)CC)CC2` [Example 1.221]: the IC50 was in the range of 50 to 500 nM.

Take `Cc1cccc(OCC(C)C)c1-n1nc2c(c1-c1ccc(NC(N)=O)c(C#N)c1)CN(c1ncc(C(F)(F)F)cc1F)CC2` [Example 1.226]: the IC50 is above 500 nM.

Take `CCc1cccc(CC)c1-n1nc2c(c1-c1cc(F)c(NC(N)=O)cc1F)CN([C@@H](CC)c1ccccc1)CC2` [Example 1.084]: the IC50 is at most 5 nM.

For the compound `Cc1cccc(OCC(C)C)c1-n1nc2c(c1-c1ccc(NC(N)=O)c(F)c1)CN(C(=O)C1CCCC1)CC2` [Example 1.238], the IC50 was 5 to 50 nM.

Consider `CCc1cccc(CC)c1-n1nc2c(c1-c1cc(F)c(N)cc1F)CN(Cc1ccc(C(F)(F)F)cc1C(F)(F)F)CC2` [Example 1.004], for which the IC50 lay within 5 to 50 nM.

For `CCc1cccc(CC)c1-n1nc2c(c1-c1cc(F)c(NC(N)=O)cc1F)CN(c1ncc(Cl)cc1Cl)[C@@H](C)C2` [Example 1.013], the IC50 is at most 5 nM.

`CCc1cccc(CC)c1-n1nc2c(c1-c1ccc(NC(N)=O)cc1)CN(CC(C)(C)C)CC2` [Example 1.282]: the IC50 lay in the range of 5 to 50 nM.

For `CCc1cccc(CC)c1-n1nc2c(c1-c1ccc(NC(N)=O)c(F)c1)CN(C(CC)CC)CC2` [Example 1.219], the IC50 was in the range of 5 to 50 nM.

Turning to `CCc1cccc(CC)c1-n1nc2c(c1-c1cc(F)c(NC(N)=O)cc1F)CN(C(CC)c1ccccc1C(F)(F)F)CC2` (centres unmarked) [Example 1.144], the IC50 was at most 5 nM.

`COCC(c1ccccc1)N1CCc2nn(-c3c(C)cccc3OCC(C)C)c(-c3cc(F)c(NC(N)=O)cc3F)c2C1` (centres unmarked) [Example 1.131]: the IC50 is at most 5 nM.

For `CCc1cccc(CC)c1-n1nc2c(c1-c1cc(F)c(NC(N)=O)cc1F)CN(Cc1ccc(C(F)(F)F)cc1C(F)(F)F)CC2` [Example 1.077], the IC50 was at most 5 nM.

Consider `Cc1cccc(F)c1CN1CCc2nn(-c3c(C)cccc3OCC(C)C)c(-c3ccc(NC(N)=O)cc3)c2C1` [Example 1.360], for which the IC50 was at most 5 nM.

In the case of `Cc1cccc(C)c1-n1nc2c(c1-c1cc(F)c(NC(N)=O)cc1F)CN(C(CC(C)(C)O)c1ccccc1)CC2` (centres unmarked) [Example 1.071], the IC50 lay within 5 to 50 nM.

Take `Cc1cccc(C)c1-n1nc2c(c1-c1cc(F)c(NC(N)=O)cc1F)CN(c1ncc(C(F)(F)F)cc1Cl)CC2` [Example 1.091]: the IC50 is at most 5 nM.

Regarding `COc1ccc(CN2CCc3nn(-c4c(C)cccc4OCC(C)C)c(-c4ccc(NC(N)=O)cc4)c3C2)c(Cl)c1` [Example 1.304], the concentration for half-maximal inhibition (IC50) lay in the range of 5 to 50 nM.

Take `Cc1cccc(OCC(C)C)c1-n1nc2c(c1-c1ccc(NC(N)=O)cc1)CN(Cc1c(Cl)cccc1C(F)(F)F)CC2` [Example 1.362]: the IC50 is at most 5 nM.

Regarding `Cc1cccc(OCC(C)C)c1-n1nc2c(c1-c1ccc(NC(N)=O)cc1)CN(C(C)c1cccc(C(F)(F)F)c1)CC2` (centres unmarked) [Example 1.319], the half-inhibitory concentration (IC50) is at most 5 nM.

With `CCc1cccc(CC)c1-n1nc2c(c1-c1cc(F)c(NC(N)=O)cc1F)CN(Cc1ccc(Cl)cc1Cl)C(C)(C)C2` [Example 1.024], the IC50 was at most 5 nM.

For the compound `Cc1cccc(OCC(C)C)c1-n1nc2c(c1-c1ccc(NC(N)=O)c(F)c1)CN(c1ncc(C(C)C)cc1F)CC2` [Example 1.218], the IC50 was at most 5 nM.

Regarding `CCc1cccc(CC)c1-n1nc2c(c1-c1cc(F)c(NC(N)=O)cc1OC)CN(c1ncc(Cl)cc1Cl)CC2` [Example 1.147], the IC50 is at most 5 nM.

Take `Cc1cccc(OCC(C)C)c1-n1nc2c(c1-c1ccc(NC(N)=O)cc1)CN(Cc1c(Cl)cc(C(F)(F)F)cc1C(F)(F)F)CC2` [Example 1.332]: the IC50 is at most 5 nM.

On to `NC(=O)Nc1cc(F)c(-c2c3c(nn2-c2ccccc2OCC(F)(F)F)CCN(c2ncc(Cl)cc2Cl)C3)cc1F` [Example 1.143], for which the IC50 is at most 5 nM.

As for `Cc1cccc(OCC(C)C)c1-n1nc2c(c1-c1cc(F)c(NC(N)=O)cc1F)CN(c1ccc(Cl)cn1)CC2` [Example 1.182], the IC50 is at most 5 nM.

As to `Cc1cccc(C)c1-n1nc2c(c1-c1cc(F)c(NC(N)=O)cc1F)CN(C(c1ccccc1)C(C)(C)O)CC2` (centres unmarked) [Example 1.085], the concentration for half-maximal inhibition (IC50) is 5 to 50 nM.

Turning to `Cc1ccc(CN2CCc3nn(-c4c(C)cccc4OCC(C)C)c(-c4ccc(NC(N)=O)cc4)c3C2)c(Cl)c1` [Example 1.312], the IC50 was at most 5 nM.

`Cc1cccc(C)c1-n1nc2c(c1-c1ccc(N)cc1)CN(c1ccccc1C(C)(C)C)CC2` [Example 1.471]: the IC50 fell in the range of 5 to 50 nM.

For the compound `Cc1cccc(OCC(C)C)c1-n1nc2c(c1-c1ccc(NC(N)=O)cc1)CN(c1cc(C(C)(C)C)ccn1)CC2` [Example 1.395], the IC50 fell in the range of 5 to 50 nM.

On to `CC(C)COc1cccnc1-n1nc2c(c1-c1cc(F)c(NC(N)=O)cc1F)CN(c1ncc(Cl)cc1Cl)CC2` [Example 1.171], for which the IC50 is 5 to 50 nM.
